# Measured values: the supplement of paper PMC13380429
# Columns and labels:
# Details in all cases: 72 h
# Vero E6 [1] = assay: drug sensitivity score (DSS) for viability; higher = more toxic; extreme values may be limits of the assay
# Calu-3 [2] = assay: as above
# HepG2 [3] = assay: as above
# Caco-2 [4] = assay: as above
# U2OS [5] = assay: as above
# Calu-3 [6] = assay: relative viability EC50 (midpoint between 100% and the lowest measured viability); higher = less toxic
# HepG2 [7] = assay: as above
# Vero E6 [8] = assay: cell viability relative to DMSO; higher = less toxic
# Calu-3 [9] = assay: as above
# HepG2 [10] = assay: as above
# Caco-2 [11] = assay: as above
# U2OS [12] = assay: as above
# Vero E6 [13] = assay: relative viability EC50 (midpoint between 100% and the lowest measured viability); higher = less toxic
# U2OS [14] = assay: as above
SMILES,drug sensitivity score (Vero E6 [1]),drug sensitivity score (Calu-3 [2]),drug sensitivity score (HepG2 [3]),drug sensitivity score (Caco-2 [4]),drug sensitivity score (U2OS [5]),relative viability EC50 (Calu-3 [6]),relative viability EC50 (HepG2 [7]),cell viability (Vero E6 [8]; 1 nM),cell viability (Vero E6 [8]; 10 nM),cell viability (Vero E6 [8]; 100 nM),cell viability (Vero E6 [8]; 1000 nM),cell viability (Vero E6 [8]; 10000 nM),cell viability (Calu-3 [9]; 1 nM),cell viability (Calu-3 [9]; 10 nM),cell viability (Calu-3 [9]; 100 nM),cell viability (Calu-3 [9]; 1000 nM),cell viability (Calu-3 [9]; 10000 nM),cell viability (HepG2 [10]; 1 nM),cell viability (HepG2 [10]; 10 nM),cell viability (HepG2 [10]; 100 nM),cell viability (HepG2 [10]; 1000 nM),cell viability (HepG2 [10]; 10000 nM),cell viability (Caco-2 [11]; 1 nM),cell viability (Caco-2 [11]; 10 nM),cell viability (Caco-2 [11]; 100 nM),cell viability (Caco-2 [11]; 1000 nM),cell viability (Caco-2 [11]; 10000 nM),cell viability (U2OS [12]; 1 nM),cell viability (U2OS [12]; 10 nM),cell viability (U2OS [12]; 100 nM),cell viability (U2OS [12]; 1000 nM),cell viability (U2OS [12]; 10000 nM),relative viability EC50 (Vero E6 [13]),relative viability EC50 (U2OS [14])
CC(C)(C)Nc1nc(Nc2ccc(C(N)=O)cc2)cc(N)c1C#N [TC-Mps1-12],2.1,0,8,1.8,2.6,> 10 µM,0.555 µM,104%,102%,101%,98.2%,61.7%,97.5%,103%,104%,109%,100%,91.7%,89.8%,88.4%,66.2%,39.5%,94.9%,101%,102%,95.9%,72.1%,93.6%,96.6%,94.8%,95%,62.9%,,
COc1ccc(C(=O)CC2(O)C(=O)Nc3c(Cl)ccc(Cl)c32)cc1 (stereo not drawn) [YK-4-279],2.6,0.6,4.4,2.8,3.6,> 10 µM,2.47 µM,108%,102%,102%,102%,48.1%,103%,93.2%,101%,106%,76.4%,106%,108%,99.1%,94.5%,34.9%,105%,93.1%,103%,93.3%,63.8%,104%,97.8%,106%,95.6%,45.7%,3.34 µM,2.5 µM
S=C(NCc1ccc2c(c1)OCO2)N1CCN(c2ncnc3c2oc2ccccc23)CC1 [amuvatinib],2.8,1.4,7.1,2.8,2.5,> 10 µM,1.75 µM,102%,104%,97.9%,90.4%,67.6%,98.4%,92.7%,101%,94.1%,78.7%,100%,101%,96.2%,84%,19%,95.2%,90.6%,97.1%,84.5%,68.3%,104%,96.6%,100%,95%,65.1%,,
